Calls of active or inactive are those of the source.
What was measured:
[1] = biological target: T1, Sentrin-specific protease 6 (Homo sapiens, UniProt Q9GZR1); type: functional;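 further: Luminescence-based dose-response confirmatory assay of SENP6 inhibition, following up an ultra-high-throughput screen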
T1 sequence (Q9GZR1 whole entry): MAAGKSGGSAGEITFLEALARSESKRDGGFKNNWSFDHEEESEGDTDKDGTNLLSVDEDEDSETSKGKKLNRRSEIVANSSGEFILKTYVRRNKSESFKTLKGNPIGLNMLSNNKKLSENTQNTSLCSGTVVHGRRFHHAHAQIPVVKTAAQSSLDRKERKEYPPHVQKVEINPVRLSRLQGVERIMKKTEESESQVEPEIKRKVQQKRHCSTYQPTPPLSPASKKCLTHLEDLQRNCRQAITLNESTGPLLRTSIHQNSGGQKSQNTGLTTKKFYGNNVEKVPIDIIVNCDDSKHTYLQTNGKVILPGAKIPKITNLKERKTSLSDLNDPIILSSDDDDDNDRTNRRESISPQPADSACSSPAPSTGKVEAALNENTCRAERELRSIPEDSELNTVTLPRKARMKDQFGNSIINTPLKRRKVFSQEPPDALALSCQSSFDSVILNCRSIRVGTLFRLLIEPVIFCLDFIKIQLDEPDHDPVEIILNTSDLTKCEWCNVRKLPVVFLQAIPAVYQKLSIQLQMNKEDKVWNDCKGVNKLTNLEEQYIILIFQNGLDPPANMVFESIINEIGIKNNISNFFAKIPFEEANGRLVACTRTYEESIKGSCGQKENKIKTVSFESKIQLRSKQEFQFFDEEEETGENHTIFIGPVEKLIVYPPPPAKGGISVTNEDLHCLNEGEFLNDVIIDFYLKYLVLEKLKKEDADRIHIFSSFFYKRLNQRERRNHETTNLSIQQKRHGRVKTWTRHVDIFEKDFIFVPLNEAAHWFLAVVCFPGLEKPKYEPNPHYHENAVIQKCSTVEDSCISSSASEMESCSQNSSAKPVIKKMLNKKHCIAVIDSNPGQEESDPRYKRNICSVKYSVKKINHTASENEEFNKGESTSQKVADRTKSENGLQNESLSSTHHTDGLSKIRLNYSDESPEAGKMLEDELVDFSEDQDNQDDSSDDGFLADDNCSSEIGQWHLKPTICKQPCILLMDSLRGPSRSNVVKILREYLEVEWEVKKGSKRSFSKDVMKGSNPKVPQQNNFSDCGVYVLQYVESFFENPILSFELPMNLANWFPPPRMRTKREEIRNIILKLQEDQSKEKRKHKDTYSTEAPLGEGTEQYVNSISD

[2] = biological target: T2, Cytochrome P450 1A2 (Homo sapiens, UniProt P05177);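 further: PubChem cytochrome P450 panel assay, CYP1A2 panel member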
T2 sequence (P05177 whole entry): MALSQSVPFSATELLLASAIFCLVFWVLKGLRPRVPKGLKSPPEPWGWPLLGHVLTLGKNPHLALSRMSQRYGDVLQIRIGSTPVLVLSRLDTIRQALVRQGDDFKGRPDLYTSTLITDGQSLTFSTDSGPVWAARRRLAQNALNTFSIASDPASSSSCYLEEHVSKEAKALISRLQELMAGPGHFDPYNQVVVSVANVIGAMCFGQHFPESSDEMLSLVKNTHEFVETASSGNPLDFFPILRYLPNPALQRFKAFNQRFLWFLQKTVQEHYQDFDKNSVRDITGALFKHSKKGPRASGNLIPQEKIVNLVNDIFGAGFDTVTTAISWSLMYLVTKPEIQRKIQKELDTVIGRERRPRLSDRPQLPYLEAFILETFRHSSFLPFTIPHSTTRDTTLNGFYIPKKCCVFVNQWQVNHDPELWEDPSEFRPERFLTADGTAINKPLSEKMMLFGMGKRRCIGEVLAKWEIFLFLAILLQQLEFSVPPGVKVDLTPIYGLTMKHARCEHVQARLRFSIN

[3] = biological target: T3, Caspase-3 (Homo sapiens, UniProt P42574); type: functional;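 further: Dose-response selectivity test against caspase-3 for candidate inhibitors of sentrin-specific proteases (SENPs)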
T3 sequence (P42574 whole entry): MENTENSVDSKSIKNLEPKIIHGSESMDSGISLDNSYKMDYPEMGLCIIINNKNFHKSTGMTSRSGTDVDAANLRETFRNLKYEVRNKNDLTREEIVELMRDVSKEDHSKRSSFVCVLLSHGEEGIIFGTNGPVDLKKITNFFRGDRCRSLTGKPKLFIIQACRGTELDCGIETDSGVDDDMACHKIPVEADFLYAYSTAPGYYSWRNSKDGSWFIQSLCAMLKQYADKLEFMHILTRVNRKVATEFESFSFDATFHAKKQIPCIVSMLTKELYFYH

[4] = biological target: T4, Sentrin-specific protease 7 (Homo sapiens, UniProt Q9BQF6); type: functional;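 further: Luminescence-based dose-response confirmation of ultra-high-throughput screening hits, measuring inhibition of SENP7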
T4 sequence (Q9BQF6 whole entry): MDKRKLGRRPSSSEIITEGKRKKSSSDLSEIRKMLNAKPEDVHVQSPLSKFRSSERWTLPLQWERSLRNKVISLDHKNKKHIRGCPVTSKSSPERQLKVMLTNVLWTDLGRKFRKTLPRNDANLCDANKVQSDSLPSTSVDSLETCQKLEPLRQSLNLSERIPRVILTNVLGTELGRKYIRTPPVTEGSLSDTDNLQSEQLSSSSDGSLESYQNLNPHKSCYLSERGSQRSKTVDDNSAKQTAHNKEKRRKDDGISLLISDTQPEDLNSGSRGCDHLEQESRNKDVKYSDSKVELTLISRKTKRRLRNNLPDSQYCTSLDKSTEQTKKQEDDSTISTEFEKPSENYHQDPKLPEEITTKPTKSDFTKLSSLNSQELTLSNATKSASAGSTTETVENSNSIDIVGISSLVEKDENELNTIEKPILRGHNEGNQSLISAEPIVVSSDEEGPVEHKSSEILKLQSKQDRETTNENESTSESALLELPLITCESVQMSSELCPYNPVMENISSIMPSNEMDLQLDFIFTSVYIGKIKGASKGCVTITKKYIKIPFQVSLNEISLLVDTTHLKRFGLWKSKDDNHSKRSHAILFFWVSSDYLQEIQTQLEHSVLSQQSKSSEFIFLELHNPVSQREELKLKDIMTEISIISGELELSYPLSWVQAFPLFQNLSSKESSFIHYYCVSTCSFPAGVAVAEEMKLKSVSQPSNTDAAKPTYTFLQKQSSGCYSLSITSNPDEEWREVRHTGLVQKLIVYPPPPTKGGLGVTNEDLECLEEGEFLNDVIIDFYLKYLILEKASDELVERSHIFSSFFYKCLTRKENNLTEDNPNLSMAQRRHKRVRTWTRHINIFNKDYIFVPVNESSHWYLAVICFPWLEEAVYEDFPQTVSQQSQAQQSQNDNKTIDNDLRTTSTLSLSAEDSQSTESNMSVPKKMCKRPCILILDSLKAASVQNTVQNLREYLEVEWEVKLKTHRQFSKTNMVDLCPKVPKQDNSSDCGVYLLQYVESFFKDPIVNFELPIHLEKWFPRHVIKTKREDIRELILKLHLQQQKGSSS

[5] = biological target: Cytochrome P450 2C19 (Homo sapiens, UniProt P33261); test: Cytochrome panel assay with activity outcomes. Panel member name: p450-cyp2c19 Compounds with AC50 equal or less than 10 uM are considered active; type: functional; conditions: read-out: AC50
Sequence of Cytochrome P450 2C19 (P33261 whole entry): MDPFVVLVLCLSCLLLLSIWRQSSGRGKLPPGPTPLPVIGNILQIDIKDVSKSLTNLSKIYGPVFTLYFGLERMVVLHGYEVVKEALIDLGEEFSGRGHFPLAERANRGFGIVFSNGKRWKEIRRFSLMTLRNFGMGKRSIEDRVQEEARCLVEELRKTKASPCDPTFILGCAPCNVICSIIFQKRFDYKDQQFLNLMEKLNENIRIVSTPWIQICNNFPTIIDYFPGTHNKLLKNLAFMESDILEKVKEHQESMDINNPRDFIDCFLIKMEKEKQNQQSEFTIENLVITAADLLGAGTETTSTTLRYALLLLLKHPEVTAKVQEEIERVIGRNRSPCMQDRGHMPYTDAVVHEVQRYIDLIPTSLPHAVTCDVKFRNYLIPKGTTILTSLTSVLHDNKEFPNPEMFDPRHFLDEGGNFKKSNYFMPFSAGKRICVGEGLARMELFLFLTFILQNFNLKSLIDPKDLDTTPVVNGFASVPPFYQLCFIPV

[6] = biological target: Cytochrome P450 2D6 (Homo sapiens, UniProt P10635);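 further: CYP2D6 member of a cytochrome P450 panel assay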
Sequence of Cytochrome P450 2D6 (P10635 whole entry): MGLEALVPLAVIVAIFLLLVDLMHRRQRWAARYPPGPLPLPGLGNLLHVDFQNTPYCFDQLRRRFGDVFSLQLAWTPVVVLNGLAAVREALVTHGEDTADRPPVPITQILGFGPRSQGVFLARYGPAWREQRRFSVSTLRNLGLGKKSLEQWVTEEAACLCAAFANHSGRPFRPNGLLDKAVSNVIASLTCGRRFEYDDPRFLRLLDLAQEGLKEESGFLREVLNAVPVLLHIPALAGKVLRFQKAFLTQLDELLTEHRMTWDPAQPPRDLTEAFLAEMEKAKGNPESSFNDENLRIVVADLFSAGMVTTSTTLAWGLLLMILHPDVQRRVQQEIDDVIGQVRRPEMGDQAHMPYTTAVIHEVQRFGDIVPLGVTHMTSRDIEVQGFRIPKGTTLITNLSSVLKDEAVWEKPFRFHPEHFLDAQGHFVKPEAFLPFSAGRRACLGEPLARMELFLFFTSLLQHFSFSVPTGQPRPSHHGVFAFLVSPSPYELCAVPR

[7] = biological target: T5, Sentrin-specific protease 8 (Homo sapiens, UniProt Q96LD8); type: functional;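 further: luminescence read-out of SENP8 inhibition, dose-response confirmation following an ultra-high-throughput screen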
T5 sequence (Q96LD8 whole entry): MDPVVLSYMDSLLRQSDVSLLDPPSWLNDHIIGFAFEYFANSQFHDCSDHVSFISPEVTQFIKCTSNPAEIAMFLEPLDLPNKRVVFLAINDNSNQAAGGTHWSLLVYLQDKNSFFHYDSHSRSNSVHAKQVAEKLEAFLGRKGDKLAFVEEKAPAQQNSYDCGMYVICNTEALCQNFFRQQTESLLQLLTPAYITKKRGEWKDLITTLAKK

[8] = biological target: T6, Estrogen receptor beta (Homo sapiens, UniProt Q92731); test: blockers of SRC-3 recruitment to ERβ – biochemical, ELISA, streptavidin-HRP readout, orthogonal assay, confirmation (AID 1060)
T6 sequence (Q92731 whole entry): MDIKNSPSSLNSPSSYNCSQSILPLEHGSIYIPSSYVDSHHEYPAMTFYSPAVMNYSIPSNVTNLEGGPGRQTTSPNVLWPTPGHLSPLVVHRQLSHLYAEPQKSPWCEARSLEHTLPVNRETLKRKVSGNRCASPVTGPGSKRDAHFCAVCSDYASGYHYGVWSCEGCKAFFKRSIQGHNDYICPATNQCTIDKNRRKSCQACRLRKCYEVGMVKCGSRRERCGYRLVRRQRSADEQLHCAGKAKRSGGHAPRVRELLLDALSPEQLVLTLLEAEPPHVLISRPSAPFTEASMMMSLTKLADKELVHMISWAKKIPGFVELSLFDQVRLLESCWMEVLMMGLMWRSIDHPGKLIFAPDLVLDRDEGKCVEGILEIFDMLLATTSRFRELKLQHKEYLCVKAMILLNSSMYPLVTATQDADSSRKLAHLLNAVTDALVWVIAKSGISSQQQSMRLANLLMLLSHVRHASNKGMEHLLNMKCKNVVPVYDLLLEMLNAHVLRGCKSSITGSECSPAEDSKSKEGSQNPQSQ

[9] = biological target: T6, Estrogen receptor beta
[10] = biological target: T7, Corticotropin-releasing factor receptor 2/Corticotropin-releasing factor-binding protein (Homo sapiens, UniProt P24387+Q13324); test: Dose Response confirmation of uHTS hits for small molecule antagonists of the CRF-binding protein and CRF-R2 receptor complex.; type: functional; conditions: read-out: IC50_Mean
T7 sequence (Q13324 whole entry): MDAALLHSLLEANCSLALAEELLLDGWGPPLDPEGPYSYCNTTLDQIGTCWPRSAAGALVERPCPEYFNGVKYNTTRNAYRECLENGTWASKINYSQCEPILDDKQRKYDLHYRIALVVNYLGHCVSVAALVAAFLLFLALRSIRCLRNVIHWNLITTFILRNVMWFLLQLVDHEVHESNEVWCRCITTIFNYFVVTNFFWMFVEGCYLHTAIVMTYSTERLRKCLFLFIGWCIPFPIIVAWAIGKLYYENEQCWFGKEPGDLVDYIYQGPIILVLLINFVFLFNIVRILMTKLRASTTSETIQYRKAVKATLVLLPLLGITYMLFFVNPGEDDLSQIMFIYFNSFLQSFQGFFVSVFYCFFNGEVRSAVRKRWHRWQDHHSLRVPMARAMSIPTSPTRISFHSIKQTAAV
T7 sequence (P24387 whole entry): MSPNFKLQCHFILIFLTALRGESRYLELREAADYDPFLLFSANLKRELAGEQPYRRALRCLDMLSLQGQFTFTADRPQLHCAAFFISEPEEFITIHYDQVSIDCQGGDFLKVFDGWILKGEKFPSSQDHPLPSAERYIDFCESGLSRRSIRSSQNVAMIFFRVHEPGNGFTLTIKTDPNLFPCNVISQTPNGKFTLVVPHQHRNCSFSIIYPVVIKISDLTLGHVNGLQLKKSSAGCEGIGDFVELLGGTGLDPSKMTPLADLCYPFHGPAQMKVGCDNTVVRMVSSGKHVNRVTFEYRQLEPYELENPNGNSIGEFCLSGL

[11] = biological target: T8, Carboxy-terminal domain RNA polymerase II polypeptide A small phosphatase 1 (Homo sapiens, UniProt Q9GZU7); test: CTDSP1 inhibitors, concentration-response, biochemical, absorbance readout, ultra-high-throughput screen actives (AID 540297); type: functional
T8 sequence (Q9GZU7 whole entry): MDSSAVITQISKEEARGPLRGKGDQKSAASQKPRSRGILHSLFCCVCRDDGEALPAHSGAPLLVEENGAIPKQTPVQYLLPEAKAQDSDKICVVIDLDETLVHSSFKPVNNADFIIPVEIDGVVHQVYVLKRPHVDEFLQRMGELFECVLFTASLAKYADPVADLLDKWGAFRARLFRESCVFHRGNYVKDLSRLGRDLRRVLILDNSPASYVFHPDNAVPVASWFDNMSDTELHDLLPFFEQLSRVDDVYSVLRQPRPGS

[12] = biological target: T7, Corticotropin-releasing factor receptor 2/Corticotropin-releasing factor-binding protein; test: activators of CRF receptor 2 with binding protein – uHTS hits, confirmation (AID 602473); type: functional; conditions: read-out: EC50_Mean
[13] = biological target: Glyceraldehyde-3-phosphate dehydrogenase (Homo sapiens, UniProt P04406)
Sequence of Glyceraldehyde-3-phosphate dehydrogenase (P04406 whole entry): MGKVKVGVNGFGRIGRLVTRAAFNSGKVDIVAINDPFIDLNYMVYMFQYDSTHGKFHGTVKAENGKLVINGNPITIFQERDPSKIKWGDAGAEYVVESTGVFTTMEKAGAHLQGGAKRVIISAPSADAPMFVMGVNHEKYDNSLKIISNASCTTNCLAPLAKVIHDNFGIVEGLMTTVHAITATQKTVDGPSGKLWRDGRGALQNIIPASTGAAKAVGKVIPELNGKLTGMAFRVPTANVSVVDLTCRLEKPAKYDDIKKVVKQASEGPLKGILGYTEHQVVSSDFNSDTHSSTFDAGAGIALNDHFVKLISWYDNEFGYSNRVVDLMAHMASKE

[14] = viability loss in THP-1 monocytes – THP-1 cells, cytotoxicity control for Vif-APOBEC3G degradation inhibitor project, dose response (AID 1117359); type: functional; conditions: THP-1

For `C/C(=N\OC(=O)c1ccccc1F)c1nccs1`, which IC50 [1] is on record?
The IC50 was 17.2 µM (active).

And the AC50 [2]?
The AC50 was 31.6 µM (inconclusive).

What about the IC50 [3] of the same compound?
The IC50 was 71.1 µM (active).

And the IC50 [4]?
The IC50 was 2.97 µM (active).

And the AC50 [5]?
Its AC50 is 35.5 µM (inconclusive).

What about the AC50 [6] of the same compound?
Its AC50 is 28.2 µM (inconclusive).

And the IC50 [7]?
Its IC50 is 62.9 µM (active).

For `Cc1ccccc1/C=C\c1nc(O)c2ccccc2n1`, which IC50 [1] is on record?
The IC50 was 2.74 µM (active).

What about the IC50 [3] of the same compound?
Its IC50 is 3.24 µM (active).

What about the IC50 [4] of the same compound?
The IC50 was 2.16 µM (active).

What about the IC50 [7] of the same compound?
Its IC50 is 2.64 µM (active).

For `CCOc1ccccc1-n1nnnc1SCC(=O)NC(=O)NCc1ccco1`, which IC50 [8] is on record?
The IC50 was 9.38 µM (not active).

What about the IC50 [9] of the same compound?
The IC50 was 7.76 µM (active).

For `COCCn1c(C)cc(C(=O)COC(=O)c2cc3c(s2)CCC3)c1C`, which IC50 [8] is on record?
The IC50 was 14.9 µM (active).

What about the IC50 [10] of the same compound?
Its IC50 is > 47.1 µM (inactive).

What about the IC50 [11] of the same compound?
Its IC50 is 7.35 µM (active).

What about the IC50 [9] of the same compound?
The IC50 was > 50 µM (not active).

What about the EC50 [12] of the same compound?
The EC50 was > 53 µM (inactive).

For `O=C1C(Cl)=C(N2CCN(Cc3ccc4c(c3)OCO4)CC2)C(=O)N1c1ccnc(Cl)c1`, which IC50 [13] is on record?
Its IC50 is > 50 µM (inconclusive).

Which CC50 [14] does the source give for `Cc1ccnc(NC(=O)c2ccc(Cl)c(S(=O)(=O)N3CCCC3)c2)c1` here?
Its CC50 is > 40 µM (active).

What does the source list for `CC(=O)Nc1nonc1-c1nc2ccccc2n1N(C(C)=O)C(C)=O`?
IC50 [8]: > 109 µM (not active); IC50 [9]: 2.75 µM (active)
